Experiment: xn = mol fraction of the nth substance listed
Conditions: 101 kPa

CCCCCCCCCCCCCCCC[n+]1ccccc1.O=C([O-])c1ccccc1O + NCC(=O)NCC(=O)O + O
electrical conductivity [S/m]
Conditions | 303.15 K | 308.15 K | 313.15 K
x2 = 0.0009002, x1 = 3.6e-07 | – | 0.00265 | 0.00314
x2 = 0.0009002, x1 = 7.2e-07 | – | 0.0029 | 0.00341
x2 = 0.0009002, x1 = 1.09e-06 | – | 0.00318 | 0.00371
x2 = 0.0009002, x1 = 1.27e-06 | – | 0.00329 | 0.00384
x2 = 0.0009002, x1 = 1.63e-06 | – | 0.00345 | 0.00402
x2 = 0.0009002, x1 = 1.99e-06 | – | 0.00366 | 0.00426
x2 = 0.0009002, x1 = 2.36e-06 | – | 0.00389 | 0.00452
x2 = 0.0009002, x1 = 2.72e-06 | – | – | 0.00473
x2 = 0.0009002, x1 = 3.08e-06 | – | 0.00419 | 0.00487
x2 = 0.0009002, x1 = 3.44e-06 | – | 0.00434 | 0.00504
x2 = 0.0009002, x1 = 3.81e-06 | – | 0.00452 | 0.00524
x2 = 0.0009002, x1 = 4.35e-06 | – | 0.00468 | 0.00543
x2 = 0.0009002, x1 = 4.71e-06 | – | 0.00487 | 0.00562
x2 = 0.0009002, x1 = 5.26e-06 | – | 0.00501 | 0.00579
x2 = 0.0009002, x1 = 5.62e-06 | 0.0045 | 0.00518 | 0.00595
x2 = 0.001799, x1 = 1.8e-07 | 0.00363 | 0.00434 | 0.00519
x2 = 0.001799, x1 = 3.6e-07 | 0.00371 | 0.00444 | 0.00529
x2 = 0.001799, x1 = 5.5e-07 | 0.00382 | 0.00456 | –
x2 = 0.001799, x1 = 7.3e-07 | 0.00389 | 0.00475 | 0.00563
x2 = 0.001799, x1 = 9.1e-07 | 0.0041 | 0.00487 | 0.00576
x2 = 0.001799, x1 = 1.28e-06 | 0.00422 | 0.00501 | 0.00592
x2 = 0.001799, x1 = 1.46e-06 | 0.00438 | 0.00519 | 0.00613
x2 = 0.001799, x1 = 1.82e-06 | 0.00454 | 0.00537 | 0.00632
x2 = 0.001799, x1 = 2.19e-06 | 0.00469 | 0.00555 | 0.00653
x2 = 0.001799, x1 = 2.55e-06 | 0.00484 | 0.00572 | 0.00673
x2 = 0.001799, x1 = 2.92e-06 | 0.00495 | 0.00584 | 0.00688
x2 = 0.001799, x1 = 3.1e-06 | – | – | 0.00701
x2 = 0.001799, x1 = 3.46e-06 | 0.00515 | 0.00607 | 0.00715
x2 = 0.001799, x1 = 3.83e-06 | 0.00526 | 0.00619 | 0.00728
x2 = 0.001799, x1 = 4.01e-06 | – | – | 0.00738
